Source: paper PMC5954133, “Functional Characterization of a Small Alarmone Hydrolase in Corynebacterium glutamicum” (Frontiers in Microbiology, 2018)

Molecular target: T1, RelSCg (Corynebacterium glutamicum, UniProt Q8NNR8)
T1 construct: gene Cgl2119; full-length; expressed in E. coli ER2566
T1 sequence (Q8NNR8 1-341): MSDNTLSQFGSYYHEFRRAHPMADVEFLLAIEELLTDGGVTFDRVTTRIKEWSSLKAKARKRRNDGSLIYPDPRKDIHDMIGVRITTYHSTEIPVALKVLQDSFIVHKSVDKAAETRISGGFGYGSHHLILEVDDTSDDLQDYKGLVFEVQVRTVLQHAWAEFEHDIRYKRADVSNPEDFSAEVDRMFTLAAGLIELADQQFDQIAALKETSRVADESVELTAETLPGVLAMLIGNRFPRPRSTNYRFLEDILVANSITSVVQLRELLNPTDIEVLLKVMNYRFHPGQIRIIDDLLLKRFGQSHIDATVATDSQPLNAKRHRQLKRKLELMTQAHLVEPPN
Experiment: preparative pyrophosphorylation, product identified by HPLC-MS
Type: biochemical
Details: 12 mM ATP, 10 mM MgCl2, 50 mM Tris-HCl pH 8, 16 h

## Nc1nc2c(ncn2[C@@H]2O[C@H](COP(=O)(O)OP(=O)(O)O)[C@@H](O)[C@H]2O)c(=O)[nH]1 [GDP]
  preparative pyrophosphorylation, product identified by HPLC-MS: produced by RelSCg-catalyzed pyrophosphorylation of GMP, GDP or GTP

## Nc1nc2c(ncn2[C@@H]2O[C@H](COP(=O)(O)O)[C@@H](O)[C@H]2O)c(=O)[nH]1 [GMP]
  preparative pyrophosphorylation, product identified by HPLC-MS: produced by RelSCg-catalyzed pyrophosphorylation of GMP, GDP or GTP
